According to US7092825B1, “Protein engineering” (The University of Queensland, priority 1998, dated 2006):
Positions of bridges follow the written chain, without caps; N, C: chain ends. Residues, ends and D or L forms follow the SMILES beside them.

Tests used:
[1] = molecular target: T1, human Growth Hormone Receptor (hGHR) (Homo sapiens, UniProt P10912); assay: Growth Hormone proliferation assay (hGH-stimulated BaF3 cell proliferation, MTT); format: cell-based; conditions: inhibition of BaF3 cell proliferation in response to 0.5 ng/mL hGH; read-out: calculated Ki
T1 construct: expressed in transfected cells; host or cells: BaF-B03 (BaF3) pro-B cells
T1 sequence (P10912 19-638): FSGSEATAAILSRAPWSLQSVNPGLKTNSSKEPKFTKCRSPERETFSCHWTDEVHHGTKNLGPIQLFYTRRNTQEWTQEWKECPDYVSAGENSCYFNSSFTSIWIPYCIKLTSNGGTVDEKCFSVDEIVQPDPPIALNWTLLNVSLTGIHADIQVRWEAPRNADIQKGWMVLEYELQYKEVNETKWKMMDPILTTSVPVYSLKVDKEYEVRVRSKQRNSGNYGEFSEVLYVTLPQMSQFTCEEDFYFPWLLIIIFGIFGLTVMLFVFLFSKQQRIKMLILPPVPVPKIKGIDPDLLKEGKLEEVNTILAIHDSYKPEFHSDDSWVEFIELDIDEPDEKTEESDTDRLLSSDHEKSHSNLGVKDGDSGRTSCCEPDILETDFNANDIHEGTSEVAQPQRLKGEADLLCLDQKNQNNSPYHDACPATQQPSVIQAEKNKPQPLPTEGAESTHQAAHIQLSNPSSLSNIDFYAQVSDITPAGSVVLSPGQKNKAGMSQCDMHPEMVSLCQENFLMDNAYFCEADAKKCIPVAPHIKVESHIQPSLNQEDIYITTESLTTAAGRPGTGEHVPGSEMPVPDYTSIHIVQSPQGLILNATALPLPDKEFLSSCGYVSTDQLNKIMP
Method: SCY01 was tested for biological function by bioassay using the BaF3 cell line, which cells normally respond to GH. SCY01 was assayed at various concentrations to check its ability to inhibit BaF3 cell proliferation in response to either 0.5 ng/mL hGH, or as a control, 50 Units/mL IL-3.
BaF-B03 cells (a pro B cell line) that stably express the human Growth Hormone Receptor (hGHR) are used in this assay since they are able to elicit a GH-specific response at concentrations as low as 0.1 ng/mL hGH (4.54 pM). These cells also endogenously express the IL3 receptor and require IL3 or GM-CSF to survive in culture. The assay is based on that of Mossman, 1983, J. Immunol. Meth. 65 55, and involves the following procedure:— • (i) culture cells in RPMI-1640 medium supplemented with 10% (v/v) foetal bovine serum (FBS) and 100 units/mL IL3 under 5% CO2 at 37° C. Allow the culture to reach mid-log growth phase; • (ii) centrifuge cells at 500×g and wash with PBS to remove IL3 from the culture medium. Repeat the centrifugation and resuspend in 1 mL of RPMI-1640 plus 0.5% (v/v) FBS. […] Allow plate to rest in the dark for 5 minutes before reading; • (x) read plate at 595 nm on a microplate reader. Values obtained are directly proportional to cell number (as measured by mitochondrial dehydrogenase levels).

[2] = Blood serum stability test (RP-HPLC); format: in vitro ADME; conditions: 37° C.
Text: Preliminary studies evaluated the bioavailability of SCY01 by exposing it to a variety of proteases (trypsin, chymotrypsin and pepsin) and blood serum proteins as described in MATERIALS AND METHODS. The results of the blood serum stability test are presented in Table 2, and the results of the enzyme stability tests are presented in Table 3. […] Thus emphasising the favourable chemical characteristics of disulfide-rich proteins.
Blood was collected in heparinised tubes by venapuncture. The blood was centrifuged at 5000 rpm for 20 mins and the serum decanted. The blood serum was stored at −20° C. A sample of the blood serum (900 μL) was incubated with 100 μL of the stock peptide solution (1 mg/mL in H2O) at 37° C. and aliquots (100 μL) removed at the required time. A solution of 50% CH3CN 0.1% TFA was added to precipitate the blood serum proteins and centrifuged at 13000 rpm for 5 mins. A sample of this solution (100 μL) was analysed by RP-HPLC (Vydac C18 218TP54 250×4.1 mm id 1%/min gradient H2O/CH3CN 0.1% TFA) to detect peptide digestion.

trypsin = assay: Enzyme stability test, trypsin; format: in vitro ADME; conditions: trypsin 5% w:v, NH4HCO3 pH 8.3, 37° C.
Method: To the peptide solution (NH4HCO3, pH 8.3, 0.87 mg/mL) was added trypsin (5% w:v). Samples were incubated at 37° C. and aliquots removed at 0, 1, 3 and 18 hrs and analysed by RP-HPLC as above.

α-chymotrypsin = assay: Enzyme stability test, chymotrypsin; format: in vitro ADME; conditions: chymotrypsin 5% w:v, NH4HCO3 pH 8.3, 37° C.
Method: To the stock peptide solution (100 μL) was added 900 μL NH4HCO3 (pH 8.3). Chymotrypsin was added to 5% w:v and incubated at 37° C. Aliquots were removed at 0 hr, 1 hr and 24 hrs and analysed by RP HPLC.

pepsin = assay: Enzyme stability test, pepsin; format: in vitro ADME; conditions: pepsin 1% w:v, pH 2.2, 37° C.
Method: To the stock peptide solution (100 μL) was added H2O (800 μL) and 0.1 M HCl (100 μL) to pH 2.2. Pepsin was added to give a 1% w:v solution and incubated at 37° C. Aliquots were removed at 0 h, 1 h and 24 hrs and analysed by RP-HPLC.

Question: For `CC[C@H](C)[C@@H]1NC(=O)[C@@H]2CSSC[C@H](NC(=O)[C@H](Cc3ccccc3)NC(=O)[C@H](C)N)C(=O)N[C@@H](CC(N)=O)C(=O)N[C@@H](CC(C)C)C(=O)N[C@@H](CCCNC(=N)N)C(=O)N[C@@H](CCCCN)C(=O)N[C@H]3CSSC[C@H](NC(=O)[C@H](CCCCN)NC(=O)[C@H](CC(=O)O)NC(=O)CNC1=O)C(=O)N[C@@H](CCC(=O)O)C(=O)N[C@H](C(=O)N[C@H](C(=O)N[C@@H](CCCCN)C(N)=O)C(C)C)CSSC[C@H](NC(=O)[C@H](CCCCN)NC(=O)[C@H](CC(=O)O)NC(=O)[C@H](CCC(N)=O)NC3=O)C(=O)N[C@@H](CCC(=O)O)C(=O)N[C@@H]([C@@H](C)O)C(=O)N[C@@H](Cc1ccccc1)C(=O)NCC(=O)N[C@@H](CC(C)C)C(=O)N[C@@H](CC(C)C)C(=O)NCC(=O)N[C@@H](CCCCN)C(=O)N2` [SCY01] (H-AFCNLRKCQDKCETFGLLGKCIGDKCECVK-NH2; disulfide 3-21, 8-26, 12-28), which Ki [1] is on record?
Answer: ~200 µM

Question: And the “Blood serum stability test result, 0 hr” value ([2]; 0 hr)?
Answer: stable

Question: What about the “Blood serum stability test result, 1 hr” value ([2]; 1 hr) of the same compound?
Answer: stable

Question: And the “Blood serum stability test result, 24 hrs” value ([2]; 24 hrs)?
Answer: stable

Question: What about the “Enzyme stability test result, trypsin” value (trypsin) of the same compound?
Answer: Stable over 18 hrs

Question: What about the “Enzyme stability test result, α-chymotrypsin” value (α-chymotrypsin) of the same compound?
Answer: Stable over 18 hrs

Question: And the “Enzyme stability test result, pepsin” value (pepsin)?
Answer: Stable over 18 hrs
